Key:
[1] = molecular target: TropB (Talaromyces stipitatus, UniProt B8M9J8); experiment: change in absorbance at […] nm; assay type: binding
[2] = molecular target: TropB (Talaromyces stipitatus, UniProt B8M9J8, R206Q); experiment: change in absorbance at […] nm; assay type: binding
TropB (Talaromyces stipitatus, UniProt B8M9J8, R206Q), sequence (B8M9J8 whole entry R206Q): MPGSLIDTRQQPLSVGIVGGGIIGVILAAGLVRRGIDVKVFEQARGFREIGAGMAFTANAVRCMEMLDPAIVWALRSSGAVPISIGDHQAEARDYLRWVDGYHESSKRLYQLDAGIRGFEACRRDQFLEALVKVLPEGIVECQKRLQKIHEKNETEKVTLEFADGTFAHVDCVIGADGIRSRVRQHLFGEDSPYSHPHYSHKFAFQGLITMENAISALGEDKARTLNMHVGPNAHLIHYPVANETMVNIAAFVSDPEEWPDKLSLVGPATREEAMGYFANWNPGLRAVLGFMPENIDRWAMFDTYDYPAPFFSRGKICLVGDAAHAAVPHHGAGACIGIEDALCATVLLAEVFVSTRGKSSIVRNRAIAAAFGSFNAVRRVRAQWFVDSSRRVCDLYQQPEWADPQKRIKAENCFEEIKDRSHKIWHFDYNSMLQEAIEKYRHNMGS

TropB (Talaromyces stipitatus, UniProt B8M9J8), sequence (B8M9J8 whole entry): as the sequence (B8M9J8 whole entry R206Q) above, with Q206R counted along it

Cc1cc(O)c(C)c(O)c1C=O [compound 1, 3-methylorcinaldehyde]
Kd [1]: 21 ± 2 µM
Kd [2]: 32 ± 4 µM

From paper PMC6658140 (ACS catalysis, 2019)
